molecular target: T1, human FAAH (Fatty Acid Amide Hydrolase) (Homo sapiens, UniProt O00519); assay: FAAH whole cell assay on CHO cells expressing human FAAH (human WC), AAMCA fluorescent substrate; assay type: cell-based; conditions: human FAAH_CHO whole cell
T1 construct: The full length FAAH was subcloned into the mammalian expression vector, pcDEF.neo, using XbaI and EcoRI restriction sites; expressed in transfected cells
T1 sequence (O00519 1-579): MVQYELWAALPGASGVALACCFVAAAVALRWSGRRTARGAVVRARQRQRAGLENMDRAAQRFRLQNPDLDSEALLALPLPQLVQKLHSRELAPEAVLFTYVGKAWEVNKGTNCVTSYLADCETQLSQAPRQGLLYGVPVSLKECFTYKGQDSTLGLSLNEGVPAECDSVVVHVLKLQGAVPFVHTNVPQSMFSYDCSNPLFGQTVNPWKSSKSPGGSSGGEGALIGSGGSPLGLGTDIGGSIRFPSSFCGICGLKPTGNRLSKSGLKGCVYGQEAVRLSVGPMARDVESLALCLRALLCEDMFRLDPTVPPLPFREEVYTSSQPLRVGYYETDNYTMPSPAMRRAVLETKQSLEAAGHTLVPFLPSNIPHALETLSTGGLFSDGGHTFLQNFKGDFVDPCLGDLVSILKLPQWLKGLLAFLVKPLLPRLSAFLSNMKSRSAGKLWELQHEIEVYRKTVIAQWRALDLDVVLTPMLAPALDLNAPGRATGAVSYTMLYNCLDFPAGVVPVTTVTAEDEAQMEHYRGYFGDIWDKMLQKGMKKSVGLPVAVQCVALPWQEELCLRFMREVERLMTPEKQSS
Description: (§1) To assist in assay development stable cell lines for human, murine and rat full length FAAH were developed. Human FAAH cDNA (Accession No: NM_001441.1) was purchased from Origene (Rockville, Md.). The full length FAAH was subcloned into the mammalian expression vector, pcDEF.neo, using XbaI and EcoRI restriction sites and used for stable cell line generation.
Murine (accession number NM_010173) and Rat FAAH (accession number NM_024132) was amplified by reverse transcriptase polymerase chain reaction (RT-PCR) from brain cDNA (BD Biosciences, San Jose, Calif.) using primers 1 and 2 or primers 1 and 3 respectively (see Table). The resulting PCR product was ligated into pCR4 TOPO and DNA sequence confirmed. The full length murine FAAH was subcloned into the mammalian expression vector, pcDEFneo using either EcoRI (murine) or KpnI and EcoRI (rat) restriction sites. Chinese hamster ovary cells (CHO) were transfected following manufacturers protocol (AMAXA). Forty eight hours post transfection, cells were trypsinized and transferred to 96 well plates in Iscove's DMEM media supplemented with 2 mM Glutamine, 10% fetal calf serum, 1 mg/ml geneticin and HT Supplement (0.1 mM sodium hypoxanthine, 0.016 mM thymidine) in order to isolate single clones. Following selection in geneticin, individual clones were selected and FAAH activity was assessed using a whole cell fluorescent anandamide assay, modified from Ramarao et al (2005). Following removal of tissue culture media cells were dislodged following addition of Cellstripper (Mediatech, Inc. Manassas, Va.) and transferred to 96 well black clear bottom assay plate, centrifuged at 1,000 rpm for 3 mins and media removed and replaced with assay buffer (50 mM Tris pH8.0, 1 mM EDTA, 0.1% fatty acid free BSA). The reaction was initiated by addition of fluorescent substrate, AMC Arachidonoyl Amide (Cayman Chemical, Ann Arbor, Mich.) to 1 μM and reaction allowed to proceed for 2 hours at room temperature. Release of fluorescence was monitored in a CytoFluor Multiplate Reader. Cells expressing the highest amount of FAAH activity were selected for study with FAAH inhibitors.
(§2) (American Radiolabeled Chemicals; 1 mCi/ml) with FAAH (Life Sciences (1995), 56, 1999-2005 and Journal of Pharmacology and Experimented Therapeutics (1997), 283, 729-734), Analytical. Biochemistry (2003), 318, 270-5. In addition, routine assays were performed monitoring hydrolysis of arachidonyl-7-amino-4-methylcoumarin amide (AAMCA) by following increase in fluorescence upon release of 7-amino 4-methyl coumarin (λEX=355 nm, μEM=460 nm). Analytical. Biochemistry (2005). 343, 143-51
Assays are performed on either cell lysate or microsome fractions prepared as described or in whole cell format employing either the fluorescent substrate AAMCA (Cayman chemical, Ann Arbor, Mich.,) or ^3H-anandamide ([ETHANOLAMINE-1-3H] American Radiolabeled Chemicals; 1 mCi/ml). The cell lysate or microsome assay is performed in black PerkinElmer OptiPlates-384F by adding FAAH_CHO (whole cell (human whole cell or human WC), cell lysate (human cell lysate or human LY) or microsome) in assay buffer (50 mM Phosphate, pH 8.0, 1 mM EDTA, 200 mM KCl, 0.2% glycerol, 0.1% fatty acid free BSA) to each well, followed by either DMSO or compound and allowed to incubate at 22-25° C. for fifteen minutes. AAMCA substrate was used to achieve a final concentration of 1 μM and reaction allowed to proceed at room temperature for 1-3 hours. Fluorescent release as a measure of FAAH activity was monitored by reading the plate in a Envision plate Reader (Ex: 360/40 nM; Em: 460/40 nM). Whole cell assay is conducted with cells harvested after rinsing tissue culture flasks three times with Ca^++Mg^++ free PBS, incubating for […] in Enzyme free dissociation media and centrifuging for 5 minutes at 1,000 rpm in table top centrifuge. […]

| SMILES | IC50 [nM] |
| --- | --- |
| Nc1ccc(-c2[nH]c3ncccc3c2Sc2ccc(Cl)cc2)cc1 [Example A27] | 124 |
| CN(C)S(=O)(=O)c1ccc(-c2[nH]c3ncccc3c2Sc2ccc(Cl)cc2)cc1 [Example A11] | 84.1 |
| COCc1ccccc1-c1[nH]c2ncccc2c1Sc1ccc(Cl)cc1 [Example A19] | 1740 |
| CC(C)(O)c1ccc(-c2[nH]c3ncccc3c2Sc2ccc(Cl)cn2)cc1 [Example A13] | 73.2 |
| COc1ccc(-c2[nH]c3ncccc3c2Sc2ccc(Cl)cn2)cn1 [Example A24] | 128 |
| OC(c1ccc(-c2[nH]c3ncccc3c2Sc2ccc(Cl)cc2)cc1)C(F)(F)F (centres unmarked) [Example A12] | 27 |

More lines, now with the values ahead:

| IC50 [nM] | SMILES |
| --- | --- |
| 438 | N#Cc1cscc1-c1[nH]c2ncccc2c1Sc1ccc(Cl)cc1 [Example B32] |
| 1990 | O=C(NCC(O)C1CCCCC1)c1[nH]c2ncccc2c1Sc1ccc(Cl)cc1 (centres unmarked) [Example C10] |
| 1520 | Clc1ccc(Sc2c(-c3ccsc3)[nH]c3ncccc23)cc1 [Example B28] |
| 4160 | Cn1cc(-c2[nH]c3ncccc3c2Sc2ccc(Cl)cc2)cn1 [Example B20] |
| 22.8 | O=C1CCC(c2[nH]c3ncccc3c2Sc2ccc(Cl)cc2)CC1 [Example D7, 4-{3-[(4-chlorophenyl)sulfanyl]-1H-pyrrolo[2,3-b]pyridin-2-yl}cyclohexanone] |
| 352 | CC(O)C/C=C/c1[nH]c2ncccc2c1Sc1ccc(Cl)cc1 (centres unmarked) [Example B38] |
| 9.16 | O[C@H]1CC[C@H](c2[nH]c3ncccc3c2Sc2ccc(Cl)cc2)CC1 [Example D5, trans-4-{3-[(4-chlorophenyl)sulfanyl]-1H-pyrrolo[2,3-b]pyridin-2-yl}cyclohexanol] |
| 344 | Clc1ccc(Sc2c(-c3cnn4c3CCCC4)[nH]c3ncccc23)cc1 [Example B35] |
| 20.7 | Clc1ccc(Sc2c(-c3cccc4[nH]ccc34)[nH]c3ncccc23)cc1 [Example B10] |
| 53.9 | Cn1cccc2c(Sc3ccc(Cl)cc3)c(C3=CCC(O)CC3)nc1-2 (centres unmarked) [Example E5] |

molecular target: T1, human FAAH (Fatty Acid Amide Hydrolase); assay: FAAH enzyme assay on CHO cell lysate expressing human FAAH (human LY), AAMCA fluorescent substrate; assay type: biochemical; conditions: human FAAH_CHO cell lysate
Description: as §1
CHO cells expressing FAAH were used to prepare either crude cell lysate or microsome fractions. To harvest cells, tissue culture media was decanted, the monolayer washed three times with Ca^++Mg^++ free PBS and cells recovered after […] in enzyme free dissociation media (Millipore Corp, Billerica, Mass.). Cells were collected by centrifuging at 2000 rpm for 15 min. and the cell pellet re-suspended with 50 mM HEPES (pH 7.4) containing 1 mM EDTA and the protease inhibitors aprotinin (1 mg/ml) and leupeptin (100 μM). The suspension was sonicated at 4° C. and the cell lysate recovered after centrifuging at 12,000×g (14,600 rpm, SS34 rotor) for 20 min at 4° C. to form a crude pellet of cell debris, nuclei, peroxisomes, lysosomes, and mitochondria; the supernatant or cell lysate was used for FAAH enzyme assay. In some cases, microsomes fractions enriched in FAAH were prepared by centrifuging the cell lysate further at 27,000 rpm (100,000×g) in SW28 rotor for 50 minutes at 4° C. The pellet containing FAAH-enriched microsomes was re-suspend in 50 mM HEPES, (pH 7.4) 1 mM EDTA, and any remaining DNA sheared by passage of material through a 23 gauge needle and aliquots of enzyme were store at −80° C. prior to use.
as §2
Assays are performed on either cell lysate or microsome fractions prepared as described or in whole cell format employing either the fluorescent substrate AAMCA (Cayman chemical, Ann Arbor, Mich.,) or ^3H-anandamide ([ETHANOLAMINE-1-3H] American Radiolabeled Chemicals; 1 mCi/ml). The cell lysate or microsome assay is performed in black PerkinElmer OptiPlates-384F by adding FAAH_CHO (whole cell (human whole cell or human WC), cell lysate (human cell lysate or human LY) or microsome) in assay buffer (50 mM Phosphate, pH 8.0, 1 mM EDTA, 200 mM KCl, 0.2% glycerol, 0.1% fatty acid free BSA) to each well, followed by either DMSO or compound and allowed to incubate at 22-25° C. for fifteen minutes. AAMCA substrate was used to achieve a final concentration of 1 μM and reaction allowed to proceed at room temperature for 1-3 hours. Fluorescent release as a measure of FAAH activity was monitored by reading the plate in a Envision plate Reader (Ex: 360/40 nM; Em: 460/40 nM). Whole cell assay is conducted with cells harvested after rinsing tissue culture flasks three times with Ca^++Mg^++ free PBS, incubating for […] in Enzyme free dissociation media and centrifuging for 5 minutes at 1,000 rpm in table top centrifuge. Cells are resuspended in assay buffer at desired cell number in (4×10^4 cells/assay in 96-well format; 1×10^4 cells/assay in 384-well format) and assayed as described.

| SMILES | IC50 [nM] |
| --- | --- |
| Nc1ccc(-c2[nH]c3ncccc3c2Sc2ccc(Cl)cc2)cc1 [Example A27] | 5.56 |
| CN(C)S(=O)(=O)c1ccc(-c2[nH]c3ncccc3c2Sc2ccc(Cl)cc2)cc1 [Example A11] | 6.38 |
| COCc1ccccc1-c1[nH]c2ncccc2c1Sc1ccc(Cl)cc1 [Example A19] | 196 |
| CC(C)(O)c1ccc(-c2[nH]c3ncccc3c2Sc2ccc(Cl)cn2)cc1 [Example A13] | 17.8 |
| COc1ccc(-c2[nH]c3ncccc3c2Sc2ccc(Cl)cn2)cn1 [Example A24] | 30.4 |
| OC(c1ccc(-c2[nH]c3ncccc3c2Sc2ccc(Cl)cc2)cc1)C(F)(F)F (centres unmarked) [Example A12] | 5.29 |

Results, then the compound that gave them:

| IC50 [nM] | SMILES |
| --- | --- |
| 94.8 | N#Cc1cscc1-c1[nH]c2ncccc2c1Sc1ccc(Cl)cc1 [Example B32] |
| 660 | O=C(NCC(O)C1CCCCC1)c1[nH]c2ncccc2c1Sc1ccc(Cl)cc1 (centres unmarked) [Example C10] |
| 217 | Clc1ccc(Sc2c(-c3ccsc3)[nH]c3ncccc23)cc1 [Example B28] |
| 238 | Cn1cc(-c2[nH]c3ncccc3c2Sc2ccc(Cl)cc2)cn1 [Example B20] |
| 14.2 | O=C1CCC(c2[nH]c3ncccc3c2Sc2ccc(Cl)cc2)CC1 [Example D7, 4-{3-[(4-chlorophenyl)sulfanyl]-1H-pyrrolo[2,3-b]pyridin-2-yl}cyclohexanone] |
| 22.5 | CC(O)C/C=C/c1[nH]c2ncccc2c1Sc1ccc(Cl)cc1 (centres unmarked) [Example B38] |
| 3.83 | O[C@H]1CC[C@H](c2[nH]c3ncccc3c2Sc2ccc(Cl)cc2)CC1 [Example D5, trans-4-{3-[(4-chlorophenyl)sulfanyl]-1H-pyrrolo[2,3-b]pyridin-2-yl}cyclohexanol] |
| 33.5 | Clc1ccc(Sc2c(-c3cnn4c3CCCC4)[nH]c3ncccc23)cc1 [Example B35] |
| 3.88 | Clc1ccc(Sc2c(-c3cccc4[nH]ccc34)[nH]c3ncccc23)cc1 [Example B10] |
| 8.07 | Cn1cccc2c(Sc3ccc(Cl)cc3)c(C3=CCC(O)CC3)nc1-2 (centres unmarked) [Example E5] |

— US20130059850A1, “AZA-INDOLE DERIVATIVES USEFUL AS MODULATORS OF FAAH” (MERCK SHARP & DOHME CORP., priority 2010, published 2013)
